This is an account of results in article PMC3063246, “Corticotropin Releasing Factor-Induced CREB Activation in Striatal Neurons Occurs via a Novel Gβγ Signaling Pathway” (PLoS ONE, 2011).

The test system of assay [1] is CRF-induced CREB phosphorylation in striatal neurons. The assay can be described thus: Block of CRF-induced CREB phosphorylation. The assay is classed as cell-based, rat.
Assay [2] concerns ISO-induced cAMP accumulation. The assay can be described thus: Block of ISO-induced cAMP accumulation. The class given is cell-based, rat. Particulars: SQ22536 90 µM; ISO 10 µM; IBMX 75 µM. (In general: Changes in cAMP serve as a functional read-out for many G protein-coupled receptors.)
Another assay addresses CRFR2. Particulars: cited from earlier work. The source says: (§1) Supplement pone.0018114.s002.xlsx, sheet "Sheet1" | column: Target (notes)
The next assay has as its target CRFR1. More on the design: method as in 5 sources, ref 26 = [26]; PMID 9918582; 26 Perrin MH Sutton SW Cervini LA Rivier JE Vale WW 1999 Comparison of an agonist, urocortin, and an antagonist, astressin, as radioligands for characterization of corticotropin-releasing factor recep ||| ref [73] (a number printed in a supplementary file, which may have a reference list of its own: not looked up in the article's list) ||| ref [74] (a number printed in a supplementary file, which may have a reference list of its own: not looked up in the article's list) ||| ref [75] (a number printed in a supplementary file, which may have a reference list of its own: not looked up in the article's list) ||| ref [76] (a number printed in a supplementary file, which may have a reference list of its own: not looked up in the article's list). The conditions noted are these: cited from earlier work.

Another assay has as its target PKA. The conditions noted are these: cited from earlier work.
From the text: as §1

For assay [3], the system named is CREB phosphorylation in cultured striatal neurons. The assay is classed as cell-based, rat.
The subject of assay [4] is depolarization-induced CREB phosphorylation. The class given is cell-based.
In assay [5] the test system is cAMP in cultured striatal neurons. The assay can be described thus: cAMP assay (Parameter cAMP kit) in cultured striatal neurons. The assay is classed as cell-based, rat. The conditions noted are these: IBMX 75 µM.
In assay [6] the test system is total CREB in cultured striatal neurons. The assay can be described thus: Immunocytochemistry of total CREB. The class given is cell-based, rat. Particulars: CRF 40 nM, 15 min, vs vehicle; P = 0.67, Student's two-tailed T-test.
In assay [7] the test system is CREB in cerebellar and hippocampal neurons. The conditions noted are these: cited from earlier work. The source says:
Separate from CREB/MAPK signaling, CRF also affects the activity of various other kinases, second messengers, ion channels and neurotransmitter receptors [45]–[51]. This diversity in cellular effects is not surprising when one considers the ability of CRF ...

Assay [8] has as its system rewarding effects of drugs of abuse / sucrose reward. Particulars: cited from earlier work. From the text:
Human individuals with a history of chronic stress are more likely to become addicts, and previously abstinent addicts are more likely to relapse following exposure to an acute stressor [1]–[3]. […] And while research thus far has focused on the NAc, CRF neurotransmission is also an essential component to connectivity in the dorsal striatum [19]–[22].

A further assay deals with PI3K. The conditions noted are these: 100 nM; cited from earlier work.
From the text: as §1

The test system of assay [9] is CREB phosphorylation in cultured striatal neurons. The conditions noted are these: ISO via a Gαs pathway in striatal neurons; cited from earlier work. The procedure:
To test for a Gβγ-dependent mechanism in CRF-induced CREB phosphorylation, we utilized the Gβγ-specific inhibitor gallein (75 µM). […] To ensure that the effect of gallein was specific to CRF and not dampening all G-protein signaling, we stimulated our neurons with ISO (10 µM) in the presence of gallein. […] Indeed, this was in fact the ...

A further assay concerns the target CRF receptor 1 (UniProt P34998). The conditions noted are these: cited from earlier work.
Assay [10] deals with depolarization-induced CREB phosphorylation. More on the design: method as in 3 sources, ref 36 = [36]; PMID 11226322; doi:10.1073/pnas.051634198; 36 Wu GY Deisseroth K Tsien RW 2001 Activity-dependent CREB phosphorylation: convergence of a fast, sensitive calmodulin kinase pathway and a slow, less sensitive mitogen-activated protein kinase path ||| ref [36] (a number printed in a supplementary file, which may have a reference list of its own: not looked up in the article's list) ||| ref [71] (a number printed in a supplementary file, which may have a reference list of its own: not looked up in the article's list). Particulars: 2 µM; cited from earlier work.

For assay [11], the system named is STR-induced CREB phosphorylation. The assay can be described thus: Block of stressin-1-induced CREB phosphorylation. The class given is cell-based, rat. Particulars: CP154526 100 nM; stressin-1 70 nM, 15 min.
The mark [12] stands for this setting: inhibitor 100 nM, 30 min prior and concurrently, CRF 15 min.
The mark [13] stands for this setting: inhibitor 1 µM, 30 min prior and concurrently, CRF 15 min, data not shown.
Where [14] appears, read: inhibitor 500 nM, 30 min prior and concurrently, CRF 15 min, data not shown.
Setting [15] is: inhibitor 10 µM, 30 min prior and concurrently, CRF 15 min.

Entries after “also recorded” stand apart in the source; their conditions may differ. Read-outs that look alike come from different tables or passages of the source. No end group written: not given here.

Chain of CRF receptor 1 (P34998 24-415): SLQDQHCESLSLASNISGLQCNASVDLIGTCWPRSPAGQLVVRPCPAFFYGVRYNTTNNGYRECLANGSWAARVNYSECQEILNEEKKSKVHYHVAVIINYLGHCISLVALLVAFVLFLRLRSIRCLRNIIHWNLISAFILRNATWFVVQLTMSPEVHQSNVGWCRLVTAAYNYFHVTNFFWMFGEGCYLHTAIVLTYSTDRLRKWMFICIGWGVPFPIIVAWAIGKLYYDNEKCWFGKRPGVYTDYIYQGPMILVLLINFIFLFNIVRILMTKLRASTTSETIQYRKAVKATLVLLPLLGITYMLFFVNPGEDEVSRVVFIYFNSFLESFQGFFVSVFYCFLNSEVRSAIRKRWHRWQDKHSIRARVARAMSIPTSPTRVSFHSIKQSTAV

In the case of `Nc1ncnc2c1ncn2C1CCCO1` (stereo not drawn) [SQ22536], the “effect on CRF-induced CREB phosphorylation” value in [1] (inhibitor 90 µM, 30 min prior and concurrently, CRF 15 min) was “had no effect on CRF-induced CREB phosphorylation; also recorded: failed to affect CRF-induced CREB phosphorylation”. The “effect on ISO-induced cAMP formation” value in assay [2] was “completely blocked ISO-induced cAMP accumulation; also recorded: completely blocked ISO-induced cAMP formation”.

Consider antisauvagine-30, for which the equilibrium dissociation constant (Kd) on CRFR2 is 1.4 nM; on CRFR1 it was 154 nM. For the same molecule, the “effect on CRF-induced CREB phosphorylation” value in [1] (setting [12]) was “failed to block CRF-induced CREB phosphorylation; also recorded: had no effect on CRF-induced CREB phosphorylation”.

In the case of `COC(=O)C1=C(C)NC(C)=C(C(=O)OC)C1c1ccccc1[N+](=O)[O-]` [nifedipine], in assay [1] (inhibitor 5 µM, 30 min prior and concurrently, CRF 15 min), the “effect on CRF-induced CREB phosphorylation” value was “had no effect on CRF-induced CREB phosphorylation; also recorded: not affected”.

Consider pertussis toxin [PTX], for which the “effect on CRF-induced CREB phosphorylation” value in assay [1] (PTX overnight (18 hr) pretreatment, 0.5 µng/µL, 500 ng/mL) was “did not alter CRF-mediated CREB phosphorylation; also recorded: did not affect CRF-induced pCREB”.

Turning to “PKI, 14–22 amide: cell permeable peptide PKA inhibitor (SGRTGRRNA-NH2; not fully specified (N-terminus); also: myristoylated, site not given here; UniProt P61925 14-22, looked up, fragment)”, at PKA, the Ki is 36 nM. Besides, in assay [1] (setting [13]), the “effect on CRF-induced CREB phosphorylation” value is given as “failed to eliminate CRF-induced CREB phosphorylation”.

For cholera toxin [CTX], in [3], the “pCREB after toxin alone” value was “transient increase in pCREB on its own” and the “pCREB signal after toxin alone” value turned out to be 2809.7±104.5. Moreover, in [1], the “effect on CRF-induced CREB phosphorylation” value was “blocked CRF-induced CREB phosphorylation; also recorded: complete block of CRF-induced CREB phosphorylation”. The “effect on 60 mM K+ depolarization-induced (MAPK-dependent) CREB phosphorylation” value in assay [4] is on record as “had no effect on MAPK-dependent CREB phosphorylation; also recorded: unaffected”.

Take `COc1cccc(-c2cc(=O)c3ccccc3o2)c1N` [PD98059]: the “effect on CRF-induced CREB phosphorylation” value in assay [1] (inhibitor 25 µM, 30 min prior and concurrently, CRF 15 min, data not shown) was “yielded a similar result”.

For the molecule `C=C[C@@]1(C)CC(=O)[C@]2(O)[C@@]3(C)[C@@H](O)CCC(C)(C)[C@@H]3[C@H](O)[C@H](OC(C)=O)[C@@]2(C)O1` [forskolin], in assay [3] (AC agonist, 25 µM), the CREB phosphorylation entry is “CREB phosphorylation stimulated”.

As to `Cc1cncc2cccc(S(=O)(=O)N3CCCNC[C@@H]3C)c12` [H-1152], in [1] (setting [14]), the “effect on CRF-induced CREB phosphorylation” value was “failed to affect CRF-induced CREB phosphorylation”.

For `N#CC(=C(/N)Sc1ccccc1N)/C(C#N)=C(/N)Sc1ccccc1N` [U0126], the “effect on CRF-induced CREB phosphorylation” value in assay [1] (setting [15]) was “blocked CRF-induced CREB phosphorylation”.

With `CCN(CC)CC.Nc1ncnc2c1ncn2[C@@H]1O[C@@H]2COP(O)(=S)O[C@H]2[C@H]1O` (stereo partly drawn) [cAMPS-Rp, triethylammonium salt], the EC50 in the assay with PKA is 11000 to 16000 nM. Moreover, the “effect on CRF-induced CREB phosphorylation” value in [1] (setting [15]) was “failed to eliminate CRF-induced CREB phosphorylation”.

Regarding corticotropin releasing factor [CRF], the “time constant τ of CRF-induced CREB phosphorylation” value in assay [3] (40 nM CRF, time course) is on record as roughly 3.5 min. In assay [3] (CRF 40 nM, 15 min, vs vehicle (NS), p<0.0001, ~25 cells per group), the CREB phosphorylation entry is on record as “significantly increased CREB phosphorylation; also recorded: exhibited increased CREB phosphorylation”. Further, the “share of striatal neurons with shift in pCREB fluorescence intensity” value in [3] (CRF 40 nM, 15 min, cumulative histogram) is given as “approximately 80%”. For the same molecule, the “effect of extended exposure on CREB phosphorylation” value in [3] (CRF 40 nM, 1 hr) is listed as “apparent desensitization”. In assay [3] (NAc "enriched" cultures, data not shown), the “CREB phosphorylation, NAc enriched culture” value is recorded as “similarly robust increases in CREB phosphorylation”. The molecule also displayed an EC50 in [3] (cultured striatal neurons from 1- to 2-day old rat pups, 8-10 d.i.v., nuclear pCREB (Ser133) immunofluorescence, 15 min, nonlinear curve fit) of 0.3 nM. In addition, in [3] (dorsal striatum "enriched" cultures, data not shown), the “CREB phosphorylation, dorsal striatum enriched culture” value is reported as “similarly robust increases in CREB phosphorylation”. Further, the “CREB phosphorylation in mCherry-transfected neurons” value in [3] (neurons transfected with mCherry alone) is recorded as “robust CRF-induced CREB phosphorylation”. Further, the cAMP concentration entry in assay [5] (CRF 40 nM, time course of pCREB) was “failed to induce any measurable increase in cAMP concentration”. In assay [5] (CRF 4 µM, 15 min, MβCD 10 mM), the “cAMP formation in the presence of MβCD” value is listed as “increased cAMP concentrations; also recorded: significant increase in cAMP formation” and the “cAMP formation in the presence of MβCD relative to isoproterenol” value was “not to the levels seen with isoproterenol”. The cAMP accumulation entry in [5] (CRF, various concentrations up to and including 400 nM, 15 min) was “failed to increase cAMP accumulation; also recorded: failed to induce a significant accumulation of cAMP”. For the same molecule, the “total CREB staining” value in assay [6] is recorded as “had no effect on total CREB staining; also recorded: showed no change in total CREB staining”. The CREB activation entry in assay [7] is “activate CREB”. Moreover, in the assay with CRFR1, the “binding affinity of CRF for CRFR1” value was 5 to 10 nM. Further, the “effect on incentive salience of a sucrose reward” value in assay [8] (CRF acting in NAc) is recorded as “enhances the incentive salience of a sucrose reward”. In assay [8], the “effect on rewarding effects of drugs of abuse” value was “potentiate the rewarding effects of drugs of abuse”.

Take `COC[C@H]1OC(=O)c2coc3c2[C@@]1(C)C1=C(C3=O)[C@@H]2CCC(=O)[C@@]2(C)C[C@H]1OC(C)=O` [wortmannin]: in the assay with PI3K, the PI3K inhibition entry is on record as “PI3K (100 nM inhibits PI3K)”. The “effect on CRF-induced CREB phosphorylation” value in assay [1] (setting [14]) was “failed to affect CRF-induced CREB phosphorylation”.

As for `CC(C)NCC(O)c1ccc(O)c(O)c1` (stereo not drawn) [isoproterenol], the cAMP concentration result in assay [5] (ISO 10 µM, 15 min, positive control) was “significant increase in cAMP”. In assay [9], the CREB phosphorylation result is reported as “leads to CREB phosphorylation”.

Take “Corticotropin releasing factor (from UniProt P06850)”: the Kd in the assay with CRF receptor 1 is 7.5 nM.

`COc1ccc(S(=O)(=O)N(CCO)c2ccccc2CN(C)C/C=C/c2ccc(Cl)cc2)cc1` [KN-93]: the “effect on CRF-induced CREB phosphorylation” value in [1] (inhibitor 2 µM, 30 min prior and concurrently, CRF 15 min) is “had no effect on CRF-induced CREB phosphorylation; also recorded: did not affect CRF-induced CREB phosphorylation”. Besides, the “effect on depolarization-induced CREB phosphorylation” value in [10] is recorded as “blocks depolarization-induced CREB phosphorylation”.

On to astressin, for which the Ki on CRFR2 was 1.5 to 2.8 nM; on CRFR1 it was 1.6 to 2 nM. In addition, the “effect on CRF-induced CREB phosphorylation” value in [1] (inhibitor 50 nM, 30 min prior and concurrently, CRF 15 min) is reported as “completely abolished CRF-induced CREB phosphorylation; also recorded: blocked”.

Regarding `CCCCN(CC)c1nc(C)nc2c1c(C)cn2-c1c(C)cc(C)cc1C` [CP154526], the inhibition constant (Ki) at CRFR2 was greater than 10000 nM; at CRFR1 it was 2.7 nM. For the same molecule, the “effect on CRF-induced CREB phosphorylation” value in assay [1] (setting [12]) is recorded as “eliminated CRF-induced CREB phosphorylation; also recorded: blocked”. Also, the “effect on STR-induced CREB phosphorylation” value in [11] is given as “blocked”.

Turning to `CCCCCCOC(=O)[C@]1(O)C[C@@H]2O[C@@]1(C)n1c3ccccc3c3c4c(c5c6ccccc6n2c5c31)C(=O)NC4` [KT5720], the “effect on CRF-induced CREB phosphorylation” value in [1] (setting [13]) is “failed to eliminate CRF-induced CREB phosphorylation”.

The term Kd denotes the concentration at which binding is half-saturated. A word on the Ki: it is the dissociation constant of the complex between target and ligand, obtained from inhibition or displacement. One may read the EC50 as the concentration giving half of the maximal effect.
